Measurements: patent US11684616B2, “Azalactam compounds as HPK1 inhibitors” (PFIZER INC., priority 2020, dated 2023)

Experiments:
[1] = target: human full-length autophosphorylated recombinant HPK1 (Homo sapiens (Human), UniProt Q92918); assay: HPK1 biochemical enzyme assay (chelation-enhanced fluorescence, CHEF); details: 0.5 nM HPK1, 45 μM ATP, Morrison fit
How it was run: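 Autophosphorylated full-length human HPK1 from Sf21 cells, His-tag removed by TEV, residual N-terminal Gly-Ser. Activity measured with a C-Sox fluorescent peptide substrate (CHEF); initial velocities followed at λex 360/λem 500 nm, 30 °C for 15 min.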

[2] = test system: Phospho-SLP-76 (Ser376) in Jurkat cells; assay: Phospho-SLP-76 (Ser376) HTRF assay in anti-CD3 stimulated Jurkat cells; format: cell-based; details: Homo sapiens, Jurkat, 30 min pre-treatment, anti-CD3 stimulation 15 min, read-out: pSLP76 IC50
Description: Cell Based Assays Phospho-SLP-76 (Ser376) Homogeneous Time Resolved Fluorescence (HTRF) Assay
Jurkat cells were seeded at 90,000 cells/well in 90 uL of RPMI1640 growth medium containing 10% FBS and incubated at 37° C. with 5% CO2 overnight. The following day, compounds were serially diluted from a 10 mM top dose for an 11-point 3-fold dilution curve in DMSO. Compounds were intermediately diluted 1:100 into growth media prior to diluting 1:10 on cells for final concentration 10 μM to 0.1 nM in 0.1% DMSO. After 30 min pre-treatment with compounds, the cells were stimulated using 200 μg/mL of F(ab)2 complexed anti-CD3 (clone UCTH1) for 15 min at 37° C. with 5% CO2. Stimulation was stopped with ice cold PBS and cells were harvested by centrifugation before lysis in Cisbio lysis buffer (Cisbio, Bedford, Mass.). Lysates were transferred to white, low-volume plates containing anti-phospho-SLP-76-Cryptate plus anti-phospho-SLP-76-d2 HTRF antibodies and incubated overnight at room temperature protected from light according to the manufacturer's protocol (Cisbio, Bedford, Mass.). HTRF was measured on a Perkin Elmer Envision and IC50 values were calculated by concentration-response curve fitting utilizing four-parameter nonlinear regression analyses.

Chain of human full-length autophosphorylated recombinant HPK1 (Q92918 other isoform, or with tags, fused parts or gaps): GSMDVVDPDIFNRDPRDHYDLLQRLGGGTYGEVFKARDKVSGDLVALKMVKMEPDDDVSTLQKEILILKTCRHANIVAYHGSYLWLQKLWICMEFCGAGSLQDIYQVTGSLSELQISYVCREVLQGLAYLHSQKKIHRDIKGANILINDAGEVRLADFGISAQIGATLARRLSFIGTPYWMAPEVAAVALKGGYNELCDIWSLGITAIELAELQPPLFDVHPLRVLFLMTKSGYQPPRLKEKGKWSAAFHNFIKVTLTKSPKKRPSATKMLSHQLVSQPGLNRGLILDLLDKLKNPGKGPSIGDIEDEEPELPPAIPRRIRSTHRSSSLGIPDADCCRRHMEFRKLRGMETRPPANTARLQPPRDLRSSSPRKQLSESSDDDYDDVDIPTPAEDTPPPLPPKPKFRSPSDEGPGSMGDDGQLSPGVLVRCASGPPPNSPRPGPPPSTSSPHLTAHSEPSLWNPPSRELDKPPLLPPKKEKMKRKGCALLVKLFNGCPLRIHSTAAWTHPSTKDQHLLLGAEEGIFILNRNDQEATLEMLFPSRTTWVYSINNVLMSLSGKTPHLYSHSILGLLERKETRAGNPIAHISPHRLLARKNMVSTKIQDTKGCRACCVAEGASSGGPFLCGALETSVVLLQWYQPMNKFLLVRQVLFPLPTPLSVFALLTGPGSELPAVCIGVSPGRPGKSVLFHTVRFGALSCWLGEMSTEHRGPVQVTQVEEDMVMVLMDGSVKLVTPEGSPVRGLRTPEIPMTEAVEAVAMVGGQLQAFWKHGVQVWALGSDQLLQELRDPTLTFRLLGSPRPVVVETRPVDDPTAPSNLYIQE

Row | Ki [1] | IC50 [2] | Compound
1 | 0.78 nM | 354 nM | CCCn1cnnc1-c1cccc(N2Cc3c(cc(C4(C)CC4)nc3[C@@H](N)CC)C2=O)n1 (single isomer, unassigned) [Example 122, 4-[(1ξ)-1-aminopropyl]-6-(1-methylcyclo-propyl)-2-[6-(4-propyl-4H-1,2,4-triazol-3-yl)pyridin-2-yl]-2,3-dihydro-1H-pyrrolo[3,4-c]pyridin-1-one]
2 | 1.03 nM | 194 nM | CCN(C)c1cc2c(c([C@H](C)N)n1)CN(c1cccc(-c3nnc(C)n3CC)n1)C2=O (single isomer, unassigned) [Example 128, 4-[(1ξ)-1-aminoethyl]-6-[ethyl(methyl)amino]-2-[6-(4-ethyl-5-methyl-4H-1,2,4-triazol-3-yl)pyridin-2-yl]-2,3-dihydro-1H-pyrrolo[3,4-c]pyridin-1-one]
3 | 0.28 nM | 97 nM | CCN(C)c1cc2c(c([C@@H](C)N)n1)CN(c1cccc(-c3nncn3CC)n1)C2=O (single isomer, unassigned) [Example 129, 4-[(1ξ)-1-aminoethyl]-6-[ethyl(methyl)amino]-2-[6-(4-ethyl-4H-1,2,4-triazol-3-yl)pyridin-2-yl]-2,3-dihydro-1H-pyrrolo[3,4-c]pyridin-1-one]
4 | 0.4 nM | 77 nM | CCN(C)c1cc2c(c([C@H](C)N)n1)CN(c1cccc(-c3nncn3CC)n1)C2=O (single isomer, unassigned) [Example 130, 4-[(1ξ)-1-aminoethyl]-6-[ethyl(methyl)amino]-2-[6-(4-ethyl-4H-1,2,4-triazol-3-yl)pyridin-2-yl]-2,3-dihydro-1H-pyrrolo[3,4-c]pyridin-1-one]
5 | 0.37 nM | 143 nM | CCCn1c(C)nnc1-c1cccc(N2Cc3c(cc(N4CCC[C@H]4C)nc3[C@@H](C)N)C2=O)n1 (single isomer, unassigned) [Example 135]
6 | 0.22 nM | 90 nM | CCCn1c(C)nnc1-c1cccc(N2Cc3c(cc(N4CCC[C@H]4C)nc3[C@H](C)N)C2=O)n1 (single isomer, unassigned) [Example 136]
7 | 0.4 nM | 96 nM | CCCn1c(C)nnc1-c1cccc(N2Cc3c(cc(N(C)C(C)C)nc3[C@@H](C)N)C2=O)n1 (single isomer, unassigned) [Example 148, 4-[(1ξ)-1-aminoethyl]-6-[methyl (propan-2-yl)amino]-2-[6-(5-methyl-4-propyl-4H-1,2,4-triazol-3-yl)pyridin-2-yl]-2,3-dihydro-1H-pyrrolo[3,4-c]pyridin-1-one]
8 | 0.6 nM | 171 nM | CCCn1c(C)nnc1-c1cccc(N2Cc3c(cc(N(C)C(C)C)nc3[C@H](C)N)C2=O)n1 (single isomer, unassigned) [Example 149, 4-[(1ξ)-1-aminoethyl]-6-[methyl (propan-2-yl)amino]-2-[6-(5-methyl-4-propyl-4H-1,2,4-triazol-3-yl)pyridin-2-yl]-2,3-dihydro-1H-pyrrolo[3,4-c]pyridin-1-one]
9 | 0.11 nM | 59 nM | CCn1cnnc1-c1cccc(N2Cc3c(cc(N4CCC[C@H]4C)nc3[C@H](C)N)C2=O)n1 (single isomer, unassigned) [Example 150]
10 | 0.12 nM | 33 nM | CCn1cnnc1-c1cccc(N2Cc3c(cc(N4CCC[C@H]4C)nc3[C@@H](C)N)C2=O)n1 (single isomer, unassigned) [Example 151]
11 | 1.53 nM | 191 nM | CCn1cnnc1-c1cccc(N2Cc3c(cc(N(C)C)nc3[C@H](C)N)C2=O)n1 (single isomer, unassigned) [Example 152, 4-[(1ξ)-1-aminoethyl]-6-(dimethyl-amino)-2-[6-(4-ethyl-4H-1,2,4-triazol-3-yl)pyridin-2-yl]-2,3-dihydro-1H-pyrrolo[3,4-c]pyridin-1-one]
12 | 0.25 nM | 120 nM | CCn1c(C)nnc1-c1cccc(N2Cc3c(cc(N4CCC[C@H]4C)nc3[C@@H](C)N)C2=O)n1 (single isomer, unassigned) [Example 154]
13 | 0.24 nM | 113 nM | CCn1c(C)nnc1-c1cccc(N2Cc3c(cc(N4CCC[C@H]4C)nc3[C@H](C)N)C2=O)n1 (single isomer, unassigned) [Example 155]
14 | < 0.05 nM | 23 nM | C[C@@H]1CCCN1c1cc2c(c(C(C)(C)N)n1)CN(c1cccc(-c3nnc4n3[C@@H](C)CC4)n1)C2=O [Example 17, 4-(2-aminopropan-2-yl)-2-{6-[(5S)-5-methyl-6,7-dihydro-5H-pyrrolo[2,1-c][1,2,4]triazol-3-yl]pyridin-2-yl}-6-[(2R)-2-methylpyrroli-din-1-yl]-2,3-dihydro-1H-pyrrolo[3,4-c]pyridin-1-one]
15 | < 0.05 nM | 23 nM | CC[C@@H](N)c1nc(N(C)C(C)C)cc2c1CN(c1cccc(-c3nnc4n3[C@@H](CO)CC4)n1)C2=O [Example 20, 4-[(1R)-1-aminopropyl]-2-{6-[(5R)-5-(hydroxy-methyl)-6,7-dihydro-5H-pyrrolo[2,1-c][1,2,4]triazol-3-yl]pyridin-2-yl}-6-[methyl(propan-2-yl)amino]-2,3-dihydro-1H-pyrrolo[3,4-c]pyridin-1-one]
16 | < 0.045 nM | 64 nM | CC[C@@H](N)c1nc(N(C)C)cc2c1CN(c1cccc(-c3nnc4n3[C@@H](C)CC4)n1)C2=O [Example 28, 4-[(1R)-1-aminopropyl]-6-(dimethyl-amino)-2-{6-[(5S)-5-methyl-6,7-dihydro-5H-pyrrolo[2,1-c][1,2,4]triazol-3-yl]pyridin-2-yl}-2,3-dihydro-1H-pyrrolo[3,4-c]pyridin-1-one]
17 | 0.2 nM | 72 nM | CC(C)N(C)c1cc2c(c([C@@H](C)N)n1)CN(c1cccc(-c3nnc4n3[C@@H](CF)CC4)n1)C2=O [Example 29, 4-[(1R)-1-aminoethyl]-2-{6-[(5R)-5-(fluoromethyl)-6,7-dihydro-5H-pyrrolo[2,1-c][1,2,4]triazol-3-yl]pyridin-2-yl}-6-[methyl(propan-2-yl)amino]-2,3-dihydro-1H-pyrrolo[3,4-c]pyridin-1-one]
18 | < 0.05 nM | 62 nM | C[C@@H]1CCCN1c1cc2c(c([C@@H](C)N)n1)CN(c1cccc(-c3nnc4n3[C@@H](CO)CC4)n1)C2=O [Example 30, 4-[(1R)-1-aminoethyl]-2-{6-[(5R)-5-(hydroxy-methyl)-6,7-dihydro-5H-pyrrolo[2,1-c][1,2,4]triazol-3-yl]pyridin-2-yl}-6-[(2R)-2-methylpyrroli-din-1-yl]-2,3-dihydro-1H-pyrrolo[3,4-c]pyridin-1-one]
19 | < 0.05 nM | 42 nM | CC[C@@H](N)c1nc(N2CCC[C@H]2C)cc2c1CN(c1cccc(-c3nnc4n3[C@@H](CO)CC4)n1)C2=O [Example 31, 4-[(1R)-1-aminopropyl]-2-{6-[(5R)-5-(hydroxy-methyl)-6,7-dihydro-5H-pyrrolo[2,1-c][1,2,4]triazol-3-yl]pyridin-2-yl}-6-[(2R)-2-methylpyrroli-din-1-yl]-2,3-dihydro-1H-pyrrolo[3,4-c]pyridin-1-one]
20 | 0.06 nM | 46 nM | CC[C@@H](N)c1nc(N2CCC[C@H]2C)cc2c1CN(c1cccc(-c3nnc4n3[C@@H](CF)CC4)n1)C2=O [Example 32, 4-[(1R)-1-aminopropyl]-2-{6-[(5R)-5-(fluoromethyl)-6,7-dihydro-5H-pyrrolo[2,1-c][1,2,4]triazol-3-yl]pyridin-2-yl}-6-[(2R)-2-methylpyrroli-din-1-yl]-2,3-dihydro-1H-pyrrolo[3,4-c]pyridin-1-one]
